Key:
[1] = test system: foxtail, giant; assay: Test A preemergence; format: in vivo, Setaria faberii; settings: preemergence
How it was run: (§1)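 Injury readout: eye-scored versus untreated controls, 0 to 100. Exposure period: ~10 days, greenhouse. Application: soil-directed spray over sown seed (pre) or spray on seedlings 2–10 cm tall with one or two leaves (post), compound carried in non-phytotoxic solvent including surfactant.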

[2] = test system: pigweed; assay: Test A preemergence; format: in vivo, Amaranthus retroflexus; settings: preemergence
How it was run: as §1

[3] = test system: crabgrass, large; assay: Test A postemergence; format: in vivo, Digitaria sanguinalis
How it was run: as §1

[4] = test system: corn; assay: Test A postemergence; format: in vivo, Zea mays
How it was run: as §1

[5] = test system: blackgrass; assay: Test C preemergence; format: in vivo, Alopecurus myosuroides; settings: for Blackgrass plant response rating: scale 0 to 100 (0 no effect, 100 complete control)
How it was run: (§2)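 Herbicidal effect is expressed as percent visual control (0–100) judged against untreated plants 13 to 15 days after treatment in the greenhouse. Preemergence pots contained seeds in a soil–sand blend; postemergence plants, 2–18 cm tall, grew in peat-based planting medium.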

[6] = test system: galium; assay: Test C preemergence; format: in vivo, Galium aparine; settings: for Galium plant response rating: scale 0 to 100 (0 no effect, 100 complete control)
How it was run: as §2

[7] = test system: johnsongrass; assay: Test C preemergence; format: in vivo, Sorghum halepense; settings: for Johnsongrass plant response rating: scale 0 to 100 (0 no effect, 100 complete control)
How it was run: as §2

[8] = test system: pigweed; assay: Test C preemergence; format: in vivo, Amaranthus retroflexus; settings: for Pigweed plant response rating: scale 0 to 100 (0 no effect, 100 complete control)
How it was run: as §2

[9] = test system: blackgrass; assay: Test C postemergence; format: in vivo, Alopecurus myosuroides
How it was run: as §2

[10] = test system: wheat; assay: Test C postemergence; format: in vivo, Triticum aestivum
How it was run: as §2

[11] = test system: foxtail, giant; assay: Test C postemergence; format: in vivo, Setaria faberii
How it was run: as §2

[12] = test system: pigweed; assay: Test C postemergence; format: in vivo, Amaranthus retroflexus
How it was run: as §2

[13] = test system: ragweed; assay: Test C postemergence; format: in vivo, Ambrosia elation
How it was run: as §2

[14] = test system: soybean; assay: Test C postemergence; format: in vivo, Glycine max
How it was run: as §2

[15] = test system: barnyardgrass; assay: Test C postemergence; format: in vivo, Echinochloa crus-galli
How it was run: as §2

[16] = 125 g ai/ha, visual injury, 0 to 100 scale, approx. 10 days
[17] = 500 g ai/ha, visual injury after approx. 10 days, 0 to 100 scale (0 no effect, 100 complete control)
[18] = Postemergence, 500 g ai/ha, 0 to 100 scale (0 no effect, 100 complete control)
[19] = postemergence, 125 g ai/ha, about 10 days, visual rating on 0 to 100 scale (0 no effect, 100 complete control)
[20] = preemergence, 31 g ai/ha, visual rating, 13 to 15 days
[21] = preemergence, 62 g ai/ha, 13 to 15 days
[22] = preemergence, 125 g ai/ha, 13 to 15 days, scale 0 to 100, 0 = no effect, 100 = complete control
[23] = Postemergence, 31 g ai/ha, visually evaluated after 13 to 15 days
[24] = postemergence, 62 g ai/ha, scale 0 to 100
[25] = postemergence, 250 g ai/ha, scale 0 to 100 (0 no effect, 100 complete control)
[26] = postemergence, 125 g ai/ha, scale 0 to 100, 0 no effect, 100 complete control

SMILES: CCONC(=O)c1cc(CC)n(Cc2ccnc(OC(F)F)c2)n1 [Compound 131]
- Foxtail, Giant plant response rating [1, 16]: 90
- Foxtail, Giant plant response rating [1, 17]: 100
- Pigweed plant response rating [2, 16]: 100
- Pigweed plant response rating [2, 17]: 100
- Crabgrass, Large plant response rating [3, 18]: 90
- Crabgrass, Large plant response rating [3, 19]: 70
- Corn plant response rating [4, 18]: 100
- Corn plant response rating [4, 19]: 80
- Plant response rating (scale of 0 to 100), Blackgrass ([5]; Preemergence, 250 g ai/ha): 98
- Blackgrass plant response rating [5, 20]: 40
- Blackgrass plant response rating [5, 21]: 80
- Plant response rating, Blackgrass [5, 22]: 95
- Plant response rating (scale of 0 to 100), Galium ([6]; Preemergence, 250 g ai/ha): 98
- Galium plant response rating [6, 20]: 55
- Galium plant response rating [6, 21]: 75
- Plant response rating, Galium [6, 22]: 75
- Plant response rating (scale of 0 to 100), Johnsongrass ([7]; Preemergence, 250 g ai/ha): 95
- Johnsongrass plant response rating [7, 20]: 20
- Johnsongrass plant response rating [7, 21]: 65
- Plant response rating, Johnsongrass [7, 22]: 85
- Plant response rating (scale of 0 to 100), Pigweed ([8]; Preemergence, 250 g ai/ha): 100
- Pigweed plant response rating [8, 20]: 100
- Pigweed plant response rating [8, 21]: 100
- Plant response rating, Pigweed [8, 22]: 100
- Plant response rating (scale of 0 to 100 where 0 is no effect and 100 is complete control), Blackgrass [9, 23]: 5
- Blackgrass plant response rating [9, 24]: 5
- Plant response rating, Blackgrass [9, 25]: 20
- Plant response rating, Blackgrass [9, 26]: 10
- Plant response rating (scale of 0 to 100 where 0 is no effect and 100 is complete control), Wheat [10, 23]: 5
- Wheat plant response rating [10, 24]: 5
- Plant response rating, Wheat [10, 25]: 10
- Plant response rating, Wheat [10, 26]: 10
- Plant response rating (scale of 0 to 100 where 0 is no effect and 100 is complete control), Foxtail, Giant [11, 23]: 5
- Foxtail, Giant plant response rating [11, 24]: 10
- Plant response rating, Foxtail, Giant [11, 25]: 50
- Plant response rating, Foxtail, Giant [11, 26]: 40
- Plant response rating (scale of 0 to 100 where 0 is no effect and 100 is complete control), Pigweed [12, 23]: 35
- Pigweed plant response rating [12, 24]: 65
- Plant response rating, Pigweed [12, 25]: 98
- Plant response rating, Pigweed [12, 26]: 90
- Plant response rating (scale of 0 to 100 where 0 is no effect and 100 is complete control), Ragweed [13, 23]: 5
- Ragweed plant response rating [13, 24]: 30
- Plant response rating, Ragweed [13, 25]: 85
- Plant response rating, Ragweed [13, 26]: 60
- Plant response rating (scale of 0 to 100 where 0 is no effect and 100 is complete control), Soybean [14, 23]: 20
- Soybean plant response rating [14, 24]: 25
- Plant response rating, Soybean [14, 25]: 80
- Plant response rating, Soybean [14, 26]: 35
- Plant response rating (scale of 0 to 100 where 0 is no effect and 100 is complete control), Barnyardgrass [15, 23]: 5
- Barnyardgrass plant response rating [15, 24]: 5
- Plant response rating, Barnyardgrass [15, 25]: 45
- Plant response rating, Barnyardgrass [15, 26]: 10

From patent publication US20150105252A1, “SUBSTITUTED PYRAZOLES AS HERBICIDES” (E I DU PONT DE NEMOURS AND COMPANY, priority 2013, published 2015)
